Experimental findings from patent publication US9856274B2, “Substituted pyrazolo[1,5-a]pyridines as PDE-10 inhibitors” (Sunovion Pharmaceuticals Inc., priority 2011, dated 2018) are described below.

Where only a bound is given, the exact number is not on record here.

Sequence of recombinant human PDE-10 enzyme (Q9Y233 whole entry): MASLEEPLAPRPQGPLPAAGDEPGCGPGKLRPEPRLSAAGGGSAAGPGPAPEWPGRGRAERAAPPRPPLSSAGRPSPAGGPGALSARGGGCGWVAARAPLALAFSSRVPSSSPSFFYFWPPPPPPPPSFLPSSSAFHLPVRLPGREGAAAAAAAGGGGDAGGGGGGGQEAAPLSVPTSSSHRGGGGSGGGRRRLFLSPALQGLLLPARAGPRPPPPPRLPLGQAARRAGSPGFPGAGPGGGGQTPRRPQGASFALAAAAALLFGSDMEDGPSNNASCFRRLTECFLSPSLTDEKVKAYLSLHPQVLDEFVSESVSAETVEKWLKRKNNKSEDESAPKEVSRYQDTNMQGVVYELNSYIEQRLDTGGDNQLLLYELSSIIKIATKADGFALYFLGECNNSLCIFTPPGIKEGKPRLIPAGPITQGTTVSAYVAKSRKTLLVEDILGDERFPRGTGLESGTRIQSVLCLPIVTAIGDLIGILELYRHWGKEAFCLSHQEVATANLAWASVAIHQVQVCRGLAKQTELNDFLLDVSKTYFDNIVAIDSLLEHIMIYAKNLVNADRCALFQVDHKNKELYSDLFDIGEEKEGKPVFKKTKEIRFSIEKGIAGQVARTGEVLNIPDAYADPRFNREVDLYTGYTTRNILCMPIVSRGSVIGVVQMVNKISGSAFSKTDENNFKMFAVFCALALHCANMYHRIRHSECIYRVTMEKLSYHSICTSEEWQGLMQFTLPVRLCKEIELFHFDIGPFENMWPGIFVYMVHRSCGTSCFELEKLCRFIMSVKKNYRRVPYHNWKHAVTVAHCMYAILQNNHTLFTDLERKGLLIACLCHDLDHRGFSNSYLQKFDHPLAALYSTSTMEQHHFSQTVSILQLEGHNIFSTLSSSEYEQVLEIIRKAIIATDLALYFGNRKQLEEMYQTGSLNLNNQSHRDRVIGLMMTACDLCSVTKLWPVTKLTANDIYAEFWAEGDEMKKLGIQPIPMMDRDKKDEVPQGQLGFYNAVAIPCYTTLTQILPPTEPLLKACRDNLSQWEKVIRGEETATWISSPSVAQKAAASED

The test addresses recombinant human PDE-10 enzyme (Homo sapiens (Human), UniProt Q9Y233). The experiment in a line: Human PDE-10 inhibition enzyme assay (IMAP PDE Fluorescence Polarization). The class given is biochemical. Conditions: recombinant human PDE-10 expressed in baculoviral system; Fluorescein-labeled cAMP/cGMP substrate; 40-minute incubation at 37° C. As for the experimental part:
In one embodiment, the compounds provided herein were assayed for their ability to inhibit human PDE-10A. In one embodiment, the activities of the compounds were determined using the Molecular Devices IMAP PDE Fluorescence Polarization assay using recombinant human PDE-10 enzyme expressed in a baculoviral system. Briefly, 10 μL of a compound (0.2 nM-20 μM) was added to either a 96-well half area black plate or a 384-well black plate along with 10 μL of Fluorescein-labeled cAMP/cGMP substrate as per manufacturer's instructions and 10 μL of PDE enzyme (activity 0.1 U). Following a 40-minute incubation at 37° C., 60 μL of IMAP binding reagent was added. The plate was then read on a Perkin Elmer Victor (480-535 nm). The data was analyzed using Prism Software (GraphPad Inc, San Diego, Calif.).
Regarding `Cc1ncc(C)n2nc(CCc3nc4c5c(ccn4c3C)NCCO5)nc12` [Compound 41], the half-inhibitory concentration (IC50) is 10 to 100 nM.
As for `Cc1ncc(C)n2nc(CCc3nc4c5cccnc5ccc4n3C)cc12` [Compound 24], the figure is not above 10 nM; as for `Cc1ncc(C)n2nc(CCc3nc4c5cccnc5ccn4n3)cc12` [Compound 35], 10 to 100 nM; as for `Cc1ncc(C)n2nc(CCc3nc4c5cccnc5ccc4n3C)nc12` [Compound 6], not above 10 nM.
As for `Cc1ncc(C)n2cc(CCc3nc4c5cccnc5ccc4n3C)nc12` [Compound 25], the figure is 10 to 100 nM.
As for `Cc1ncc(C)n2nc(CCc3nc4ccc5ncccc5n4n3)nc12` [Compound 12], the IC50 lay in the range of 100 to 500 nM.
As for `Cc1cnc(C)n2nc(CCc3nc4c5cccnc5ccc4n3C)nc12` [Compound 10], the figure is 10 to 100 nM; as for `Cc1cccn2nc(CCc3nc4c5cccnc5ccc4n3C)nc12` [Compound 9], not above 10 nM; as for `Cc1ncc(C)n2cc(CCc3nc4c5cccnc5ccn4n3)nc12` [Compound 27], 10 to 100 nM.
As for `Cc1ncc(C)n2nc(CCc3nc4c5c(ccn4c3C)CCCC5)nc12` [Compound 38], the figure is not above 10 nM.
Take `Cn1c(CCc2nc3ccccn3n2)nc2c3ncccc3ccc21` [Compound 20]: the IC50 lay within 100 to 500 nM.
As for `Cc1ncc(C)n2nc(CCc3nc4c5cccnc5ccn4n3)nc12` [Compound 13], the figure is 10 to 100 nM; as for `c1cnc2c(c1)ccn1nc(CCc3nc4ccccn4n3)nc21` [Compound 22], more than 500 nM.
The value for `Cc1ccc(C)n2nc(CCc3nc4c5cccnc5ccc4n3C)nc12` [Compound 11] was not above 10 nM.
As for `Cn1c(CCc2nc3ccccn3n2)nc2c3nccnc3ccc21` [Compound 21], the figure is 100 to 500 nM; as for `Cc1ncc(C)n2nc(CCc3nc4c5c(ccc4n3C)OCCO5)nc12` [Compound 42], not above 10 nM; as for `Cc1ncc(C)n2nc(CCc3nc4c(ccc5ncccc54)[nH]3)nc12` [Compound 36], not above 10 nM.
As for `Cn1c(CCc2cn3ccncc3n2)nc2c3cccnc3ccc21` [Compound 31], the IC50 was more than 500 nM.
As for `Cc1ncc(C)n2nc(CCc3nc4ccccn4n3)nc12` [Compound 3], the figure is more than 500 nM; as for `Cc1ncc(C)n2nc(CCc3nc4c5ncccc5ccc4n3C)nc12` [Compound 18], not above 10 nM.
As for `Cc1ncc(C)n2nc(CCc3cn4ccccc4n3)nc12` [Compound 1], the half-maximal inhibitory concentration (IC50) is 10 to 100 nM.
For `Cc1ncc(C)n2nc(CC(C)c3nc4c5cccnc5ccc4n3C)nc12` (centres unmarked) [Compound 30], the IC50 was 10 to 100 nM.
As for `Cn1c(CCc2nc3ccccn3n2)nc2c3cccnc3ccc21` [Compound 5], the figure is 10 to 100 nM; as for `Cc1cccc2nc(CCc3nc4c5cccnc5ccc4n3C)nn12` [Compound 8], not above 10 nM.
Regarding `c1cnc2ccn3nc(CCc4nc5ccccn5n4)nc3c2c1` [Compound 15], the IC50 was more than 500 nM.
In the case of `Cn1c(CCc2cn3ccccc3n2)nc2c3cccnc3ccc21` [Compound 26], the half-inhibitory concentration (IC50) is more than 500 nM.
The value for `Cc1ncc(C)n2nc(C(C)Cc3nc4c5cccnc5ccc4n3C)nc12` (centres unmarked) [Compound 29] was not above 10 nM; that for `Cc1cc(C)n2nc(CCc3nc4c5cccnc5ccn4n3)nc2n1` [Compound 17] was 10 to 100 nM; that for `Cc1c(CCc2nc3c(F)ccc(C)n3n2)nc2c3cccnc3ccn12` [Compound 40] was not above 10 nM.
As for `Cc1ncc(C)n2nc(CCc3nc4c5c(ccc4n3C)CCCC5)nc12` [Compound 37], the IC50 was not above 10 nM.
Regarding `Cc1ncc(C)n2nc(CCc3nc4c5nccnc5ccc4n3C)nc12` [Compound 19], the half-maximal inhibitory concentration (IC50) was not above 10 nM.
As to `Cc1ccc(C)n2nc(CCc3nc4c5cccnc5ccn4n3)nc12` [Compound 16], the IC50 is not above 10 nM.
As for `Cn1c(CCc2nc3ccccc3o2)nc2c3cccnc3ccc21` [Compound 4], the figure is 100 to 500 nM.
Turning to `Cc1ncc(C)n2nc(CCc3nc4c5cccnc5ccn4c3C)nc12` [Compound 39], the half-maximal inhibitory concentration (IC50) was not above 10 nM.
The value for `Cc1cccc2nc(CCc3nc4n(n3)CCc3ncccc3-4)nn12` [Compound 23, 2-(2-(5-Methyl-[1,2,4]triazolo[1,5-a]pyridin-2-yl)ethyl)-5,6-dihydro-[1,2,4]triazolo[5,1-f][1,6]naphthyridine] was more than 500 nM; that for `Cc1ncc(C)n2nc(CCc3nc4c(ccc5ncccc54)[nH]3)cc12` [Compound 28] was 10 to 100 nM.
As for `Cc1cccc2nc(CCc3nc4c5cccnc5ccn4n3)nn12` [Compound 14], the figure is 10 to 100 nM; as for `Cc1ccc(C)n2cc(CCc3nc4c5cccnc5ccc4n3C)nc12` [Compound 32], 10 to 100 nM; as for `Cc1ncc(C)n2nc(CCc3nc4c5cccnc5sc4n3C)nc12` [Compound 7], not above 10 nM.
The value for `Cc1ccc(C)n2cc(CCc3nc4c5cccnc5ccn4n3)nc12` [Compound 34] was 100 to 500 nM; that for `Cc1ccc(Cl)c2cc(CCc3nc4c5cccnc5ccc4n3C)nn12` [Compound 33] was not above 10 nM.
